The text below walks through data of US12390482B2, “Neurolytic agents and methods of using and identifying same” (priority 2021, dated 2025).

SMILES strings stand for the structures.

The subject of one data set is sciatic nerve of WT mice. The data set is described as follows: Local application to sciatic nerve using Surgifoam wrap, WT mice. The class given is in vivo, mouse. As for the experimental part: (§1) Mice: All experiments were performed in accordance with the protocols of the Institutional Animal Care and Use Committee of Washington University in St. Louis and the guidelines for the Care and Use of Laboratory Animals of the National Institutes of Health. Mice were housed on a 12 hr light dark cycle with less than 5 mice per cage and with water and food available at all times. Male and female mice were used for all experiments. 5-week old mice were used for IP injection and 5-6-month old mice were used for Surgifoam wrap treatments. Sarm1 KO mice were a gift from Macro Colonna at Department of Pathology and Immunology, Washington University School of Medicine in St. Louis, and C57BL/6 mice were purchased from Jackson Laboratory.
(§2) IP injection and local application of 3-AP to sciatic nerve using Surgifoam wrap 5 week-old mice were used for IP injection experiment. Suitable skin incisions were made at the mid-thigh level of 5 week-old mice, followed by a small incision or blunt dissection to the muscle fascia to permit retraction of the biceps femoris and gluteus superficialis muscles to expose the sciatic nerve. The nerve was carefully separated from surrounding connective tissue and then a 0.5×1 cm piece of sterile absorbable hemostatic material (Surgifoam) soaked in 500 mM 3-AP (or saline control) was wrapped around the sciatic nerve. Wound clips, and/or tissue adhesive were used to close the incision.
Tissue processing: Tibial nerves from both control and 3-AP treated sides was dissected out 7 days post-surgery. The distal 2 cm portion of the nerve was fixed in 4% paraformaldehyde for 1 hr at room temperature, then moved to 30% sucrose and embedded in OCT for cryosectioning in the following day. Immunocytochemistry was performed on tibial cryosections using NF200 (Sigma N4142, 1:1000) and MBP (Millipore MAB386, 1:100) followed by anti-rabbit-Alexa488 (1:500) and anti-rat-Cy3 (1:500). The proximal 2 cm portion of the sciatic nerves were fixed in 3% Glutaraldehyde for processing and embedding in epoxy/plastic. Toluidine blue thick sections (400-600 nm thickness) were cut and axon counting was performed using binary image analysis.

The subject of another data set is WT DRG neurons. The data set is described as follows: Metabolite measurement by LC-MS/MS in WT DRG neurons. Type of data set: cell-based, mouse. The procedure:
(§3) DRG neuron culture: Mouse DRG culture was as described previously. Mouse DRGs were dissected at embryonic day 13.5. Approximately 50 ganglia were collected from each embryo and dissociated in 0.05% Trypsin containing 0.02% EDTA (Gibco) at 37° C. for 20 min. The DRG neurons were washed 3 times with DRG culture medium after incubation with Trypsin. Cells were seeded as spot cultures in 96-tissue culture plates (Corning) coated with 0.1 mg/ml poly-D-lysine and 0.1 mg/ml laminin. They were cultured in Neurobasal (Gibco) containing 2% B27 (Invitrogen), 100 ng/ml 2.5S NGF (Harlan Bioproducts), and 1 μM 5-fluoro-2′-deoxyuridine/1 μM uridine. The culture medium was exchanged with fresh DRG culture medium every 2-3 days. Lentiviruses were added 3 days after seeding (DIV3).
Metabolite measurement using LC-MS/MS: Lyophilized samples were reconstituted with 50 μl of 5 mM ammonium formate and centrifuged at 12,000 g for 10 min. Cleared supernatants were transferred to sample vials. Serial dilutions of standards for each metabolite in 5 mM ammonium formate were used for calibration. HPLC-mass spectrometry analysis was performed on an Agilent 1290 Infinity II liquid chromatography system (Agilent Technologies, Santa Clara, CA) with a flexible pump, multisampler, sample cooler and an MCT containing an Atlantis T3 column (2.1×150 mm, 3 μm) and VanGuard guard cartridge (2.1 mm×5 mm, 3 μm) (Waters, Milford, MA), coupled to an Agilent 6470 Triple Quad mass spectrometer (Agilent Technologies, Santa Clara, CA). The mobile phase (0.15 ml/min) was 5 mM ammonium formate in water (A) and 100% methanol (B). The column was equilibrated with 0% B, maintained after injection for 2 min, then a linear gradient to 20% B applied over 4 min. The column was then ramped to 50% B over 2 min, and held at 50% for 2 min, then reverted back to 0% B over the next 5 min and allowed to re-equilibrate at 0% B for 9 min. The total run time was 24 min per sample. […] Raw data were acquired and quantified using MassHunter Workstation software version B.08.00 for 6400 Series Triple Quadrupole (Agilent Technologies, Santa Clara, CA).

Data set [1] deals with sciatic nerve of Sarm1 KO mice. Nature of the data set: Local application to sciatic nerve using Surgifoam wrap, Sarm1 KO mice. The class given is in vivo, mouse. Conditions: 500 mM 3-AP, seven days. The procedure: as §1
as §2, with “Wound clips, and/or tissue adhesive were used to close the incision.” left out

Data set [2] concerns Sarm1 KO DRG neurons. The data set is described as follows: Metabolite measurement by LC-MS/MS in Sarm1 KO DRG neurons. The class given is cell-based, mouse. Conditions: 3-AP-treated Sarm1 KO neurons. As for the experimental part: as §3
Metabolite measurement using LC-MS/MS: Lyophilized samples were reconstituted with 50 μl of 5 mM ammonium formate and centrifuged at 12,000 g for 10 min. Cleared supernatants were transferred to sample vials. Serial dilutions of standards for each metabolite in 5 mM ammonium formate were used for calibration. […] Raw data were acquired and quantified using MassHunter Workstation software version B.08.00 for 6400 Series Triple Quadrupole (Agilent Technologies, Santa Clara, CA).

The test system of data set [3] is rabbits, dogs, mice and rats. Conditions: early studies; could be blocked by administration of Nam; cited from earlier work.
Data set [4] deals with WT mouse embryonic dorsal root ganglion (DRG) neurons. Nature of the data set: MTT assay of neuronal death in WT DRG neurons. The following applies: 12 hr treatment. Type of data set: cell-based. The procedure:
as §3
In general terms: Tetrazolium assays rely on reduction of a dye to a coloured formazan, in cell work by metabolically active cells.

For the next data set, the system named is SARM1. Nature of the data set: cADPR levels in sciatic nerve after IP injection, WT mice. Type of data set: in vivo, mouse. Conditions: 275 mg/kg IP, 3 days post-administration. The procedure: as §1
(§4) Metabolite measurement using LC-MS/MS: Lyophilized samples were reconstituted with 50 μl of 5 mM ammonium formate and centrifuged at 12,000 g for 10 min. Cleared supernatants were transferred to sample vials. Serial dilutions of standards for each metabolite in 5 mM ammonium formate were used for calibration. […] Raw data were acquired and quantified using MassHunter Workstation software version B.08.00 for 6400 Series Triple Quadrupole (Agilent Technologies, Santa Clara, CA). […]

For data set [5], the system named is Sarm1 KO DRG neurons expressing W103A, R157A or K193R SARM1 mutants or wildtype SARM1. Nature of the data set: Axon degeneration in Sarm1 KO DRG neurons infected with lentivirus expressing wildtype or allosteric pocket mutant SARM1. The class given is cell-based, mouse. Conditions: 3-AP 300 μM. The procedure:
as §3
Lentivirus production: Lentivirus production was performed as described previously. HEK 293T cells were seeded with the density of 1×10^6 in 35 mm well tissue culture plate (Corning). […]
Quantification of axon degeneration: After culture for 7 days, axotomy was performed by cutting DRG axons manually with a razor blade. […] Axon degeneration indexes were calculated from these bright-field images using ImageJ (NIH). The axon degeneration index was calculated as the ratio of fragmented axon areas as previously described. Indexes were calculated as the average of six fields per well.

The next data set concerns WT mice. The data set is described as follows: Survival after IP injection of 3-AP, WT mice. Type of data set: in vivo, mouse. The procedure:
as §1, §2

For data set [6], the system named is Sarm1 KO mice. Nature of the data set: cADPR levels in sciatic nerve after IP injection, Sarm1 KO mice. The class given is in vivo, mouse. The following applies: similar IP injections. As for the experimental part: as §1, §4
In data set [7] the test system is WT mouse embryonic dorsal root ganglion (DRG) neurons. Nature of the data set: Axon degeneration in cultured WT DRG neurons. The following applies: WT DRG neurons. Type of data set: cell-based. As for the experimental part:
as §3
[…] After axon transection, bright-field images of distal axons were taken using the Operetta automated imaging system (PerkinElmer). Axon degeneration indexes were calculated from these bright-field images using ImageJ (NIH). The axon degeneration index was calculated as the ratio of fragmented axon areas as previously described. Indexes were calculated as the average of six fields per well.

Data set [8] relates to Sarm1 KO DRG neurons. The data set is described as follows: Axon degeneration and neuronal death in cultured Sarm1 KO DRG neurons. Type of data set: cell-based, mouse. The following applies: escalating doses, even at 1 mM. The procedure: as §3
Quantification of axon degeneration: After culture for 7 days, axotomy was performed by cutting DRG axons manually with a razor blade. After axon transection, bright-field images of distal axons were taken using the Operetta automated imaging system (PerkinElmer). Axon degeneration indexes were calculated from these bright-field images using ImageJ (NIH). The axon degeneration index was calculated as the ratio of fragmented axon areas as previously described. Indexes were calculated as the average of six fields per well.

In data set [9] the test system is Sarm1 KO mice. The data set is described as follows: Survival after IP injection of 3-AP, Sarm1 KO mice. Type of data set: in vivo, mouse. As for the experimental part: as §1
as §2, with “Wound clips, and/or tissue adhesive were used to close the incision.” left out

For `CC(=O)c1cccnc1` [3-AP, 3-acetylpyridine], the “axon loss in tibial nerve distal to treatment site” value with sciatic nerve of WT mice (WT mice, 500 mM 3-AP, seven days, vs contralateral or saline-treated nerve) was “dramatic loss of axons”. In the data set on sciatic nerve of WT mice (WT mice, Surgifoam soaked in 500 mM 3-AP on sciatic nerve), the “gait after local treatment” value is given as “rapidly develop an abnormal gait”. Moreover, the “axon damage in the proximal sciatic nerve” value with sciatic nerve of WT mice (WT mice, proximal to site of 500 mM 3-AP application) is “no detectable axon damage”. Moreover, the “systemic harm after local application” value in the data set on sciatic nerve of WT mice (local application to peripheral nerve) is “without apparent systemic harm”. Also, the “NAD+ and ATP levels” value with WT DRG neurons (3-AP 300 μM, WT neurons) was “Substantial NAD^+ and ATP depletion”. Besides, the “decline in NMN” value with WT DRG neurons (within four hours, p<0.001, n=3) is reported as “greater than 50%”. Moreover, the “axon loss in treated nerve” value in data set [1] was “well protected from axon loss”. Besides, the “changes in the levels of NAD+, ATP, or cADPR” value with Sarm1 KO DRG neurons [2] is listed as “no significant changes”. Further, the “toxicity on administration to animals” value in data set [3] was “severe neurotoxicity and death”. Besides, in data set [4], the “neuronal death (MTT assay)” value is on record as “causes neuronal death at similar doses”. The “increase of cADPR levels in the sciatic nerve” value in the data set on SARM1 is listed as 3-4 fold. In addition, the “axons of Sarm1 KO neurons expressing SARM1 W103A, R157A or K193R” value in data set [5] (allosteric pocket mutants) is “remain intact”. Besides, the “axon degeneration in Sarm1 KO neurons expressing wildtype SARM1” value in data set [5] (lentiviral wildtype SARM1) is on record as “restores 3-AP-induced axon degeneration”. Also, the survival result in the data set with WT mice (275 mg/kg IP) was “generally survive”; in the data set with WT mice (400 mg/kg IP), “die rapidly”. Further, the lethality entry is “rapidly lethal” in the data set with WT mice (500 mg/kg IP) and “no lethality” in the data set with Sarm1 KO mice [9] (275 mg/kg IP, n=5). The “cADPR levels in the sciatic nerve” value in the data set with Sarm1 KO mice [6] was “no alteration in cADPR levels”. The “doses at which axons rapidly degenerate at a rate similar to that after transection” value in [7] is reported as “above 250 μM”. Moreover, the “dose at which axons begin to degenerate slowly” value in data set [7] (axonal integrity at multiple time points) came out at 250 µM. The “effect on axon degeneration and neuronal death” value in the data set with Sarm1 KO DRG neurons [8] is given as “no effect”. Moreover, the survival and phenotype result in the data set with Sarm1 KO mice [9] (up to 500 mg/kg IP) was “survive and have no obvious phenotype”.
